Laboratory results: patent US20140045895A1, “PHARMACEUTICAL DEPOT FOR 5-FLUORO-2-[[(1S)-1-(5-FLUORO-2-PYRIDYL)ETHYL]AMINO]-6-[(5-ISOPROPOXY-1H-PYRAZOL-3-YL)AMINO]PYRIDINE-3-CARBONITRILE” (ASTRAZENECA AB, priority 2010, published 2014)

Key:
[1] = Plasma levels after intra-articular injection of 50/50 PLGA formulation; type: in vivo, rats; conditions: 200 μg dose in 50/50 PLGA IA formulation into knees, rat plasma
Description: Animals were anaesthetised with isofluorane and 30 μl PLGA microspheres containing 200 μg injected into each knee using a Hamilton syringe and 25G needle. The vial of microspheres was vortexed before injection of each animal to try and obtain a homogeneous injection solution. Animals were recovered and returned to their home cages until plasma sampling.
Animals were warmed in a hot box for 10 minutes at 42° C. before being placed in a restrainer and 200 μl blood sampled from the lateral tail vein into a Sarsted Multivette 600 Lithium Heparin tube (cat no 15.1673) attached to a 21G needle. Tubes were placed on a roller until centrifugation at 13000 rpm for 5 minutes to sediment red blood cells. Plasma was decanted and stored at −20° C. until analysis by DMPK. Samples were taken 1 h, 3 h, 6 h, 24 h, 48 h, 96 h and 168 h post-injection.
The levels shown are for a 200 μg dose of compound.

[2] = Hydrolytic stability of PA in the acidic microclimate created by polymer degradation; type: physicochemical

period over which release of compound was seen (plasma) [1]: 168 h
hydrolytic stability in acidic microclimate [2]: hydrolytically stable
Compound: CC(C)Oc1cc(Nc2nc(N[C@@H](C)c3ccc(F)cn3)c(C#N)cc2F)n[nH]1 [PA, 5-fluoro-2-[[(1S)-1-(5-fluoro-2-pyridyl)ethyl]amino]-6-[(5-isopropoxy-1H-pyrazol-3-yl)amino]pyridine-3-carbonitrile]
